Assay results: publication PMC11212140, “Molecular Bidents with Two Electrophilic Warheads as a New Pharmacological Modality” (ACS Central Science, 2024)

Legend:
Experiment in all cases: KiNativ profiling in H3255 cells
Format in all cases: cell-based, human
ACK = tested on: T1, ACK; settings: 2.5 µM
T1 construct: purchased ActivX Biosciences (KiNativ)
Method: (§1) H3255 cells were plated with 6.5x10^6 per condition in fresh media in 15 cm plates and treated the 80% confluency for 2 hours with DMSO or 2.5 μM of ZNL-0056. To harvest cells, plates were washed 3 times with cold PBS, then collected by scraping into 4 mL of cold PBS containing protease and phosphatase inhibitors. Cells were pelleted by centrifugation at 1350 g at 4 ℃ for 5 minutes and immediately frozen in liquid nitrogen. The frozen samples were sent to ActivX Biosciences (La Jolla, CA) for the remainder of the KiNativ profiling experiment4. […]

AurA = tested on: T2, AurA; settings: 2.5 µM
T2 construct: purchased ActivX Biosciences (KiNativ)
Method: as §1

AurB = tested on: T3, AurB; settings: 2.5 µM; Lys1; SHFIVALKVLFK
T3 construct: purchased ActivX Biosciences (KiNativ)
Method: as §1

CDK4 = tested on: T4, CDK4; settings: 2.5 µM; Lys2; DLKPENILVTSGGTVK
T4 construct: purchased ActivX Biosciences (KiNativ)
Method: as §1

CDK9 = tested on: T5, CDK9; settings: 2.5 µM
T5 construct: purchased ActivX Biosciences (KiNativ)
Method: as §1

CK1d, CK1e = settings: 2.5 µM; Lys2; DVKPDNFLMGLGKK
Method: as §1

CK2a1 = tested on: T6, CK2a1; settings: 2.5 µM; Protein Kinase Domain; GGPNIITLADIVKDPVSR
T6 construct: purchased ActivX Biosciences (KiNativ)
Method: as §1

CRK7 = tested on: T7, CRK7; settings: 2.5 µM; Lys2; DIKCSNILLNNSGQIK
T7 construct: purchased ActivX Biosciences (KiNativ)
Method: as §1

Erk1 = tested on: T8, Erk1; settings: 2.5 µM; Lys2; DLKPSNLLINTTCDLK
T8 construct: purchased ActivX Biosciences (KiNativ)
Method: as §1

GSK3B = tested on: T9, GSK3B; settings: 2.5 µM; Lys2; DIKPQNLLLDPDTAVLK
T9 construct: purchased ActivX Biosciences (KiNativ)
Method: as §1

HER3/ErbB3 = tested on: T10, HER3/ErbB3; settings: 2.5 µM
T10 construct: purchased ActivX Biosciences (KiNativ)
Method: as §1

HRI = tested on: T11, HRI; settings: 2.5 µM; Activation Loop; IGDFGLACTDILQKNTDWTNR
T11 construct: purchased ActivX Biosciences (KiNativ)
Method: as §1

LATS2 = tested on: T12, LATS2; settings: 2.5 µM
T12 construct: purchased ActivX Biosciences (KiNativ)
Method: as §1

LYN = tested on: T13, LYN; settings: 2.5 µM
T13 construct: purchased ActivX Biosciences (KiNativ)
Method: as §1

MAP2K1, MAP2K2 = settings: 2.5 µM
Method: as §1

MAP3K2 = tested on: T14, MAP3K2; settings: 2.5 µM; Lys1; ELAVKQVQFDPDSPETSKEVNALECEIQLLK
T14 construct: purchased ActivX Biosciences (KiNativ)
Method: as §1

MER, TYRO3 = settings: 2.5 µM; Activation Loop; KIYSGDYYR
Method: as §1

MLK3 = tested on: T15, MLK3; settings: 2.5 µM; Lys2; DLKSNNILLLQPIESDDMEHK
T15 construct: purchased ActivX Biosciences (KiNativ)
Method: as §1

MSK2 domain1 = tested on: T16, MSK2 domain1; settings: 2.5 µM
T16 construct: MSK2 domain1; purchased ActivX Biosciences (KiNativ)
Method: as §1

MST1 = tested on: T17, MST1; settings: 2.5 µM; Lys1; ETGQIVAIKQVPVESDLQEIIK
T17 construct: purchased ActivX Biosciences (KiNativ)
Method: as §1

NDR1 = tested on: T18, NDR1; settings: 2.5 µM
T18 construct: purchased ActivX Biosciences (KiNativ)
Method: as §1

PCTAIRE2, PCTAIRE3 = settings: 2.5 µM; Lys1; SKLTENLVALKEIR
Method: as §1

PFTAIRE1 = tested on: T19, PFTAIRE1; settings: 2.5 µM; Lys1; LVALKVIR
T19 construct: purchased ActivX Biosciences (KiNativ)
Method: as §1

PI4K2B = tested on: T20, PI4K2B; settings: 2.5 µM; ATP; SEEPYGQLNPKWTK
T20 construct: purchased ActivX Biosciences (KiNativ)
Method: as §1

PI4KA, PI4KAP2 = settings: 2.5 µM; ATP; SGTPMQSAAKAPYLAK
Method: as §1

RON = tested on: T21, RON; settings: 2.5 µM; Lys1; IQCAIKSLSR
T21 construct: purchased ActivX Biosciences (KiNativ)
Method: as §1

RSK3 domain1 = tested on: T22, RSK3 domain1; settings: 2.5 µM; Lys2; DLKPENILLDEEGHIKITDFGLSK
T22 construct: RSK3 domain1; purchased ActivX Biosciences (KiNativ)
Method: as §1

SMG1 = tested on: T23, SMG1; settings: 2.5 µM, ATP
T23 construct: purchased ActivX Biosciences (KiNativ)
Method: as §1

ULK1 = tested on: T24, ULK1; settings: 2.5 µM; Lys2; DLKPQNILLSNPAGR
T24 construct: purchased ActivX Biosciences (KiNativ)
Method: as §1

YES = tested on: T25, YES; settings: 2.5 µM; Lys1; VAIKTLKPGTMMPEAFLQEAQIMK
T25 construct: purchased ActivX Biosciences (KiNativ)
Method: as §1

p38b = tested on: T26, p38b; settings: 2.5 µM; Other; QELNKTVWEVPQR
T26 construct: purchased ActivX Biosciences (KiNativ)
Method: as §1

[1] = Lys1, TVSVAVKCLKPDVLSQPEAMDDFIR
[2] = Activation Loop, SPSQVQVADFGVADLLPPDDKQLLYSEAKTPIK
[3] = Activation Loop, EGAKFPIKWTAPEAINFGCFTIK

SMILES: C=CC(=O)Nc1cc(Nc2nccc(-c3cn(C)c4ccccc34)n2)c(OC)cc1N(C)CCN(C)C [Osimertinib, osimertinib, reference compound]
- Inhibition (ACK; Activation Loop, KVPFAWCAPESLK): 27.2%
- Inhibition (ACK; [1]): 25.7%
- Inhibition (AurA; Lys1, FILALKVLFK): -3.3%
- Inhibition (AurA; Lys2, DIKPENLLLGSAGELK): 2.6%
- Inhibition (AurB): 9.9%
- Inhibition (CDK4): -1.3%
- Inhibition (CDK9; ATP Loop, IGQGTFGEVFKAR): 12.0%
- Inhibition (CDK9; Lys2, DMKAANVLITR): 22.6%
- Inhibition (CK1d, CK1e): 6.2%
- Inhibition (CK2a1): -0.558%
- Inhibition (CRK7): 31.9%
- Inhibition (Erk1): -0.641%
- Inhibition (GSK3B): -0.3%
- Inhibition (HER3/ErbB3; [2]): -24.2%
- Inhibition (HER3/ErbB3; Lys1, GVWIPEGESIKIPVCIKVIEDK): -64.6%
- Inhibition (HRI): -4.0%
- Inhibition (LATS2; Lys1, VDTHALYAMKTLR): -12.9%
- Inhibition (LATS2; Lys2, DIKPDNILIDLDGHIK): -15.6%
- Inhibition (LYN; [3]): 7.2%
- Inhibition (LYN; Lys1, VAVKTLKPGTMSVQAFLEEANLMK): -3.5%
- Inhibition (MAP2K1, MAP2K2; Lys1, KLIHLEIKPAIR): -64.7%
- Inhibition (MAP2K1, MAP2K2; Lys2, DVKPSNILVNSR): -10.5%
- Inhibition (MAP3K2): -20.3%
- Inhibition (MER, TYRO3): 33.0%
- Inhibition (MLK3): -1.5%
- Inhibition (MSK2 domain1; Lys1, LYAMKVLR): -36.1%
- Inhibition (MSK2 domain1; Lys2, DLKLENVLLDSEGHIVLTDFGLSK): 5.0%
- Inhibition (MST1): -24.9%
- Inhibition (NDR1; Lys1, DTGHVYAMKILR): -7.9%
- Inhibition (NDR1; Lys2, DIKPDNLLLDSK): 12.0%
- Inhibition (PCTAIRE2, PCTAIRE3): -33.1%
- Inhibition (PFTAIRE1): 2.2%
- Inhibition (PI4K2B): 26.7%
- Inhibition (PI4KA, PI4KAP2): 30.1%
- Inhibition (RON): 8.9%
- Inhibition (RSK3 domain1): -9.7%
- Inhibition (SMG1; DTVTIHSVGGTITILPTKTKPK): -6.7%
- Inhibition (SMG1; SYPYLFKGLEDLHLDER): -44.3%
- Inhibition (ULK1): -9.0%
- Inhibition (YES): 19.6%
- Inhibition (p38b): 7.2%

SMILES: C=CC(=O)Nc1cc(C(=O)Nc2nc3cccc(C)c3n2[C@@H]2CCCCN(C(=O)C=C)C2)cs1 [ZNL-0056]
- Inhibition (ACK; Activation Loop, KVPFAWCAPESLK): -21.4%
- Inhibition (ACK; [1]): -6.2%
- Inhibition (AurA; Lys1, FILALKVLFK): -0.0337%
- Inhibition (AurA; Lys2, DIKPENLLLGSAGELK): -15.7%
- Inhibition (AurB): 14.4%
- Inhibition (CDK4): -13.0%
- Inhibition (CDK9; ATP Loop, IGQGTFGEVFKAR): -9.9%
- Inhibition (CDK9; Lys2, DMKAANVLITR): 16.6%
- Inhibition (CK1d, CK1e): 10.8%
- Inhibition (CK2a1): 6.3%
- Inhibition (CRK7): -9.2%
- Inhibition (Erk1): -17.6%
- Inhibition (GSK3B): -4.3%
- Inhibition (HER3/ErbB3; [2]): 25.6%
- Inhibition (HER3/ErbB3; Lys1, GVWIPEGESIKIPVCIKVIEDK): -12.4%
- Inhibition (HRI): 6.7%
- Inhibition (LATS2; Lys1, VDTHALYAMKTLR): 15.4%
- Inhibition (LATS2; Lys2, DIKPDNILIDLDGHIK): 23.5%
- Inhibition (LYN; [3]): -13.3%
- Inhibition (LYN; Lys1, VAVKTLKPGTMSVQAFLEEANLMK): -8.7%
- Inhibition (MAP2K1, MAP2K2; Lys1, KLIHLEIKPAIR): 9.8%
- Inhibition (MAP2K1, MAP2K2; Lys2, DVKPSNILVNSR): -6.7%
- Inhibition (MAP3K2): 12.2%
- Inhibition (MER, TYRO3): 2.6%
- Inhibition (MLK3): 26.8%
- Inhibition (MSK2 domain1; Lys1, LYAMKVLR): -2.6%
- Inhibition (MSK2 domain1; Lys2, DLKLENVLLDSEGHIVLTDFGLSK): 18.7%
- Inhibition (MST1): -5.5%
- Inhibition (NDR1; Lys1, DTGHVYAMKILR): 6.1%
- Inhibition (NDR1; Lys2, DIKPDNLLLDSK): 5.7%
- Inhibition (PCTAIRE2, PCTAIRE3): -16.7%
- Inhibition (PFTAIRE1): 20.8%
- Inhibition (PI4K2B): -26.7%
- Inhibition (PI4KA, PI4KAP2): -23.5%
- Inhibition (RON): -9.0%
- Inhibition (RSK3 domain1): 5.4%
- Inhibition (SMG1; DTVTIHSVGGTITILPTKTKPK): -33.9%
- Inhibition (SMG1; SYPYLFKGLEDLHLDER): -11.5%
- Inhibition (ULK1): 3.5%
- Inhibition (YES): -13.4%
- Inhibition (p38b): -8.8%
